Assay results reported in PubChem BioAssay AID2060904 (Molecular Pharmacology Branch, DTP, NCI, 2025).
pIC50: −log10 of the molar value.

Tested on: 349418-098-R-PDC complex spheroid viability
Test: Anticancer human tumor 349418-098-R-PDC patient-derived lung adenocarcinoma cell line growth inhibition [RAS]
Details: for pIC50: curve of first compound; for viability, T/C: stronger effect = lower value
How it was run: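 Tumour cells grown as complex spheroids with HUVEC endothelial cells and mesenchymal stem cells, treated with RAS pathway inhibitor combinations. Each agent spans half-log steps from near clinical Cmax, or 10 microM where Cmax is unknown.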
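Note: spheroids exposed to compound for seven days before viability readout.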

Compound C=CC(=O)N1CCN(c2nc(OCC3CCCN3C)nc3c(F)c(-c4nc(N)cc(C)c4C(F)(F)F)c(Cl)cc23)C(C)C1 (centres undefined) + C#Cc1c(F)ccc2cc(O)cc(-c3ncc4c(N5CC6CCC(C5)N6)nc(OCC56CCCN5CC(F)C6)nc4c3F)c12 has a pIC50 (second compound 0.0316 µM) of less than 6.00, a pIC50 (second compound 0.1 µM) of less than 6.00 and a pIC50 (second compound 0.316 µM) of less than 6.00. It also gave a pIC50 (second compound 1 µM) of less than 6.00, a pIC50 (second compound 3.16 µM) of less than 6.00 and a pIC50 (second compound 10 µM) of 6.57. The viability, T/C (second compound 0.0316 µM, first compound 0.00316 µM) was 82.8%, the viability, T/C (second compound 0.0316 µM, first compound 0.01 µM) was 105% and the viability, T/C (second compound 0.0316 µM, first compound 0.0316 µM) was 112%. For the same compound, the viability, T/C (second compound 0.0316 µM, first compound 0.1 µM) was 75.1%, the viability, T/C (second compound 0.0316 µM, first compound 0.316 µM) was 111% and the viability, T/C (second compound 0.0316 µM, first compound 1 µM) was 69.8%. For the same compound, the viability, T/C (second compound 0.1 µM, first compound 0.00316 µM) was 74.3%, the viability, T/C (second compound 0.1 µM, first compound 0.01 µM) was 124% and the viability, T/C (second compound 0.1 µM, first compound 0.0316 µM) was 104%. It also gave a viability, T/C (second compound 0.1 µM, first compound 0.1 µM) of 87.2%, a viability, T/C (second compound 0.1 µM, first compound 0.316 µM) of 98.3% and a viability, T/C (second compound 0.1 µM, first compound 1 µM) of 83.9%. It also gave a viability, T/C (second compound 0.316 µM, first compound 0.00316 µM) of 65.6%, a viability, T/C (second compound 0.316 µM, first compound 0.01 µM) of 125% and a viability, T/C (second compound 0.316 µM, first compound 0.0316 µM) of 109%. It also gave a viability, T/C (second compound 0.316 µM, first compound 0.1 µM) of 79.7%, a viability, T/C (second compound 0.316 µM, first compound 0.316 µM) of 89.3% and a viability, T/C (second compound 0.316 µM, first compound 1 µM) of 87.6%. For the same compound, the viability, T/C (second compound 1 µM, first compound 0.00316 µM) was 81%, the viability, T/C (second compound 1 µM, first compound 0.01 µM) was 114% and the viability, T/C (second compound 1 µM, first compound 0.0316 µM) was 82.9%. It also gave a viability, T/C (second compound 1 µM, first compound 0.1 µM) of 91.2%, a viability, T/C (second compound 1 µM, first compound 0.316 µM) of 83.2% and a viability, T/C (second compound 1 µM, first compound 1 µM) of 77.9%. It also gave a viability, T/C (second compound 3.16 µM, first compound 0.00316 µM) of 77.4%, a viability, T/C (second compound 3.16 µM, first compound 0.01 µM) of 105% and a viability, T/C (second compound 3.16 µM, first compound 0.0316 µM) of 112%. It also gave a viability, T/C (second compound 3.16 µM, first compound 0.1 µM) of 73.3%, a viability, T/C (second compound 3.16 µM, first compound 0.316 µM) of 116% and a viability, T/C (second compound 3.16 µM, first compound 1 µM) of 75.2%. The viability, T/C (second compound 10 µM, first compound 0.00316 µM) was 91%, the viability, T/C (second compound 10 µM, first compound 0.01 µM) was 75% and the viability, T/C (second compound 10 µM, first compound 0.0316 µM) was 85.3%. The viability, T/C (second compound 10 µM, first compound 0.1 µM) was 66.8%, the viability, T/C (second compound 10 µM, first compound 0.316 µM) was 47.7% and the viability, T/C (second compound 10 µM, first compound 1 µM) was 7.82%.

Compound CC1(C)CCC(Nc2ncc(C(F)(F)F)c(-c3c[nH]c4c(P(C)(C)=O)c(C#N)ccc34)n2)CN1 (centres undefined) + C#Cc1c(F)ccc2cc(O)cc(-c3ncc4c(N5CC6CCC(C5)N6)nc(OCC56CCCN5CC(F)C6)nc4c3F)c12 has a pIC50 (second compound 0.0316 µM) of 8.95, a pIC50 (second compound 0.1 µM) greater than 9.02 and a pIC50 (second compound 0.316 µM) greater than 9.02. The pIC50 (second compound 1 µM) was 8.87, the pIC50 (second compound 3.16 µM) was greater than 9.02 and the pIC50 (second compound 10 µM) was greater than 9.02. The viability, T/C (second compound 0.0316 µM, first compound 0.000949 µM) was 54.5%, the viability, T/C (second compound 0.0316 µM, first compound 0.003 µM) was 25.6% and the viability, T/C (second compound 0.0316 µM, first compound 0.00949 µM) was 14.3%. It also gave a viability, T/C (second compound 0.0316 µM, first compound 0.03 µM) of 11.7%, a viability, T/C (second compound 0.0316 µM, first compound 0.0949 µM) of 11.1% and a viability, T/C (second compound 0.0316 µM, first compound 0.3 µM) of 7.01%. It also gave a viability, T/C (second compound 0.1 µM, first compound 0.000949 µM) of 34.8%, a viability, T/C (second compound 0.1 µM, first compound 0.003 µM) of 24% and a viability, T/C (second compound 0.1 µM, first compound 0.00949 µM) of 17%. It also gave a viability, T/C (second compound 0.1 µM, first compound 0.03 µM) of 9.95%, a viability, T/C (second compound 0.1 µM, first compound 0.0949 µM) of 8.49% and a viability, T/C (second compound 0.1 µM, first compound 0.3 µM) of 8.13%. The viability, T/C (second compound 0.316 µM, first compound 0.000949 µM) was 49.9%, the viability, T/C (second compound 0.316 µM, first compound 0.003 µM) was 26.9% and the viability, T/C (second compound 0.316 µM, first compound 0.00949 µM) was 12.6%. For the same compound, the viability, T/C (second compound 0.316 µM, first compound 0.03 µM) was 10.3%, the viability, T/C (second compound 0.316 µM, first compound 0.0949 µM) was 10.5% and the viability, T/C (second compound 0.316 µM, first compound 0.3 µM) was 8.25%. It also gave a viability, T/C (second compound 1 µM, first compound 0.000949 µM) of 57.1%, a viability, T/C (second compound 1 µM, first compound 0.003 µM) of 33.4% and a viability, T/C (second compound 1 µM, first compound 0.00949 µM) of 13%. It also gave a viability, T/C (second compound 1 µM, first compound 0.03 µM) of 10.9%, a viability, T/C (second compound 1 µM, first compound 0.0949 µM) of 11.2% and a viability, T/C (second compound 1 µM, first compound 0.3 µM) of 8.31%. The viability, T/C (second compound 3.16 µM, first compound 0.000949 µM) was 43.3%, the viability, T/C (second compound 3.16 µM, first compound 0.003 µM) was 24.5% and the viability, T/C (second compound 3.16 µM, first compound 0.00949 µM) was 12.6%. For the same compound, the viability, T/C (second compound 3.16 µM, first compound 0.03 µM) was 10.2%, the viability, T/C (second compound 3.16 µM, first compound 0.0949 µM) was 9.93% and the viability, T/C (second compound 3.16 µM, first compound 0.3 µM) was 8.57%. The viability, T/C (second compound 10 µM, first compound 0.000949 µM) was 48.4%, the viability, T/C (second compound 10 µM, first compound 0.003 µM) was 23.8% and the viability, T/C (second compound 10 µM, first compound 0.00949 µM) was 16.3%. For the same compound, the viability, T/C (second compound 10 µM, first compound 0.03 µM) was 10.4%, the viability, T/C (second compound 10 µM, first compound 0.0949 µM) was 9.78% and the viability, T/C (second compound 10 µM, first compound 0.3 µM) was 7.07%.
